The supplement of paper PMC10307832

Experiments:
Test in all cases: relative viability (nuclei count vs DMSO), 5 days (fraction); higher = more cells survive
R406 + OSI-027 = compound: COc1cc(Nc2ncc(F)c(Nc3ccc4c(n3)NC(=O)C(C)(C)O4)n2)cc(OC)c1OC [R406] + COc1cccc2cc(-c3nc([C@H]4CC[C@H](C(=O)O)CC4)n4ncnc(N)c34)[nH]c12 [OSI-027] (partner 0.5 µM)
Procedure, shortened: (§1)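 After 5 days of treatment, lung cancer cells in 1536-well plates were fixed and stained in a single step (final 0.05% Triton X-100, 1% formaldehyde, 1 ug/ml Hoechst) and their nuclei counted on 4× images. Treatment had been applied by pin tool the day after seeding as one drug alone or as a fixed anchor-drug dose with five library-drug doses (not always all listed) in √10 steps. Relative viability is the nuclei count of treated wells divided by that of vehicle wells, and values are medians of duplicate plates.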

R406 + Vorinostat = compound: COc1cc(Nc2ncc(F)c(Nc3ccc4c(n3)NC(=O)C(C)(C)O4)n2)cc(OC)c1OC [R406] + O=C(CCCCCCC(=O)Nc1ccccc1)NO [Vorinostat] (partner 1 µM)
Procedure, shortened: as §1

Daporinad + Navitoclax = compound: O=C(/C=C/c1cccnc1)NCCCCC1CCN(C(=O)c2ccccc2)CC1 [Daporinad] + CC1(C)CCC(c2ccc(Cl)cc2)=C(CN2CCN(c3ccc(C(=O)NS(=O)(=O)c4ccc(N[C@H](CCN5CCOCC5)CSc5ccccc5)c(S(=O)(=O)C(F)(F)F)c4)cc3)CC2)C1 [Navitoclax] (partner 0.5 µM)
Procedure, shortened: as §1

Daporinad + Linsitinib = compound: O=C(/C=C/c1cccnc1)NCCCCC1CCN(C(=O)c2ccccc2)CC1 [Daporinad] + C[C@]1(O)C[C@@H](c2nc(-c3ccc4ccc(-c5ccccc5)nc4c3)c3c(N)nccn32)C1 [Linsitinib] (partner 1 µM)
Procedure, shortened: as §1

Row | Cell Line | relative viability (R406 + OSI-027; first compound 0.08 µM) | relative viability (R406 + OSI-027; first compound 0.253 µM) | relative viability (R406 + OSI-027; first compound 0.8 µM) | relative viability (R406 + OSI-027; first compound 2.53 µM) | relative viability (R406 + OSI-027; first compound 8 µM) | relative viability (R406 + Vorinostat; first compound 0.08 µM) | relative viability (R406 + Vorinostat; first compound 0.253 µM) | relative viability (R406 + Vorinostat; first compound 0.8 µM) | relative viability (R406 + Vorinostat; first compound 2.53 µM) | relative viability (R406 + Vorinostat; first compound 8 µM) | relative viability (Daporinad + Navitoclax; first compound 0.0005 µM) | relative viability (Daporinad + Navitoclax; first compound 0.001581 µM) | relative viability (Daporinad + Navitoclax; first compound 0.005 µM) | relative viability (Daporinad + Navitoclax; first compound 0.01581 µM) | relative viability (Daporinad + Linsitinib; first compound 0.0005 µM) | relative viability (Daporinad + Linsitinib; first compound 0.001581 µM) | relative viability (Daporinad + Linsitinib; first compound 0.005 µM) | relative viability (Daporinad + Linsitinib; first compound 0.01581 µM)
1 | NCI-H520 | 0.243 | 0.302 | 0.336 | 0.25 | 0.188 | 0.671 | 0.698 | 0.668 | 0.384 | 0.162 | 0.945 | 0.442 | 0.258 | 0.197 | 0.87 | 0.445 | 0.177 | 0.149
2 | NCI-H596 | 0.793 | 0.682 | 0.903 | 0.329 | 0.269 | 0.659 | 0.681 | 0.72 | 0.38 | 0.263 | 1.01 | 1.05 | 1.3 | 0.291 | 1.06 | 1.15 | 1.19 | 0.477
3 | NCI-H647 | 0.657 | 0.504 | 0.878 | 0.298 | 0.15 | 0.436 | 0.645 | 0.611 | 0.66 | 0.113 | 1.03 | 1.27 | 1.25 | 1.14 | 1.06 | 1.07 | 1.24 | 0.983
4 | NCI-H727 | 0.712 | 0.829 | 0.641 | 0.304 | 0.537 | 1.01 | 1.26 | 1.22 | 1.24 | 1.18 | 0.409 | 0.568 | 0.483 | 0.29 | 0.282 | 0.337 | 0.244 | 0.261
